Data on two substances can be found in US4606856A, “[Des-1-amino, 8-glycine]calcitonin” (priority 1985, dated 1986).

For experiment [1], the system named is serum calcium concentration. Particulars: standard salmon calcitonin used in the assay; cited from earlier work.
For experiment [2], the system named is serum calcium concentration. Kind of experiment: Biological assay of calcitonin analogs in vivo: reduction of serum calcium concentration, 2×2 parallel line assay. Particulars: rats, subcutaneous injection, serum calcium 1 hour later, compared with synthetic salmon calcitonin standard.
Method: Rats were divided into four groups of seven animals, and each group was assigned at random to a dose of standard or test solution. Low and high doses were chosen from the linear portion of the dose-response curve. For the salmon calcitonin standard, the values were 0.7 and 2.1 ng. peptide/100 g. body weight (BW). This dose approximates 3 and 9 MU/100 g. BW. Peptides were given by subcutaneous injection (0.2 ml/100 g. BW) and blood was withdrawn 1 hour later for serum calcium determination. Sera are processed and analyzed within two hours of collection. Results were analyzed within two hours of collection. Results were analyzed by a 2×2 parallel line assay [Gaddum, J. H., J. Pharm.

Consider “Salmon calcitonin [standard salmon calcitonin]”, for which, in experiment [1], the “biological potency of the standard, independently determined” value is listed as “greater than 4,000 IU/mg”.

“[Des-1-Amino, 8-Glycine]salmon calcitonin [[Des-1-Amino, Gly^8]SCT]”: in experiment [2], the biological potency is on record as 4750 IU/mg.
